# In ChEMBL document CHEMBL4665642, “Anticancer profile of newly synthesized BRAF inhibitors possess 5-(pyrimidin-4-yl)imidazo[2,1-b]thiazole scaffold” (Bioorg Med Chem, 2019):
# What was measured:
# Format in all cases: functional
# Conditions in all cases: read-out: Activity
# IGROV-1 = test: Cytotoxicity against human IGROV-1 cells assessed as cell viability at 10 uM incubated for 48 hrs by sulforhodamine B assay relative to control
# TK-10 = test: Cytotoxicity against human TK-10 cells assessed as cell viability at 10 uM incubated for 48 hrs by sulforhodamine B assay relative to control
# SR = test: Cytotoxicity against human SR cells assessed as cell viability at 10 uM incubated for 48 hrs by sulforhodamine B assay relative to control
# UACC-62 = test: Cytotoxicity against human UACC-62 cells assessed as cell viability at 10 uM incubated for 48 hrs by sulforhodamine B assay relative to control
# MDA-MB-231 = test: Cytotoxicity against human MDA-MB-231 cells assessed as cell viability at 10 uM incubated for 48 hrs by sulforhodamine B assay relative to control
# MOLT-4 = test: Cytotoxicity against human MOLT-4 cells assessed as cell viability at 10 uM incubated for 48 hrs by sulforhodamine B assay relative to control
# NCI-H522 = test: Cytotoxicity against human NCI-H522 cells assessed as cell viability at 10 uM incubated for 48 hrs by sulforhodamine B assay relative to control
# HOP-92 = test: Cytotoxicity against human HOP-92 cells assessed as cell viability at 10 uM incubated for 48 hrs by sulforhodamine B assay relative to control
# OVCAR-5 = test: Cytotoxicity against human OVCAR-5 cells assessed as cell viability at 10 uM incubated for 48 hrs by sulforhodamine B assay relative to control
# COLO 205 = test: Cytotoxicity against human COLO 205 cells assessed as cell viability at 10 uM incubated for 48 hrs by sulforhodamine B assay relative to control
# NCI-H460 = test: Cytotoxicity against human NCI-H460 cells assessed as cell viability at 10 uM incubated for 48 hrs by sulforhodamine B assay relative to control
# SNB-75 = test: Cytotoxicity against human SNB-75 cells assessed as cell viability at 10 uM incubated for 48 hrs by sulforhodamine B assay relative to control
# M14 = test: Cytotoxicity against human M14 cells assessed as cell viability at 10 uM incubated for 48 hrs by sulforhodamine B assay relative to control
# KM12 = test: Cytotoxicity against human KM12 cells assessed as cell viability at 10 uM incubated for 48 hrs by sulforhodamine B assay relative to control
# BT-549 = test: Cytotoxicity against human BT-549 cells assessed as cell viability at 10 uM incubated for 48 hrs by sulforhodamine B assay relative to control
# A549 = test: Cytotoxicity against human A549 cells assessed as cell viability at 10 uM incubated for 48 hrs by sulforhodamine B assay relative to control
# SN12C = test: Cytotoxicity against human SN12C cells assessed as cell viability at 10 uM incubated for 48 hrs by sulforhodamine B assay relative to control
# OVCAR-4 = test: Cytotoxicity against human OVCAR-4 cells assessed as cell viability at 10 uM incubated for 48 hrs by sulforhodamine B assay relative to control
# DU-145 = test: Cytotoxicity against human DU-145 cells assessed as cell viability at 10 uM incubated for 48 hrs by sulforhodamine B assay relative to control
# NCI-H23 = test: Cytotoxicity against human NCI-H23 cells assessed as cell viability at 10 uM incubated for 48 hrs by sulforhodamine B assay relative to control
# MDA-MB-468 = test: Cytotoxicity against human MDA-MB-468 cells assessed as cell viability at 10 uM incubated for 48 hrs by sulforhodamine B assay relative to control
# PC-3 = test: Cytotoxicity against human PC-3 cells assessed as cell viability at 10 uM incubated for 48 hrs by sulforhodamine B assay relative to control
# SK-MEL-28 = test: Cytotoxicity against human SK-MEL-28 cells assessed as cell viability at 10 uM incubated for 48 hrs by sulforhodamine B assay relative to control
# Hs-578T = test: Cytotoxicity against human HS-578T cells assessed as cell viability at 10 uM incubated for 48 hrs by sulforhodamine B assay relative to control
# SW-620 = test: Cytotoxicity against human SW-620 cells assessed as cell viability at 10 uM incubated for 48 hrs by sulforhodamine B assay relative to control
# 786-0 = test: Cytotoxicity against human 786-0 cells assessed as cell viability at 10 uM incubated for 48 hrs by sulforhodamine B assay relative to control
# U-251 = test: Cytotoxicity against human U-251 cells assessed as cell viability at 10 uM incubated for 48 hrs by sulforhodamine B assay relative to control
# EKVX = test: Cytotoxicity against human EKVX cells assessed as cell viability at 10 uM incubated for 48 hrs by sulforhodamine B assay relative to control
# NCI-H226 = test: Cytotoxicity against human NCI-H226 cells assessed as cell viability at 10 uM incubated for 48 hrs by sulforhodamine B assay relative to control
# SF-268 = test: Cytotoxicity against human SF-268 cells assessed as cell viability at 10 uM incubated for 48 hrs by sulforhodamine B assay relative to control
# K562 = test: Cytotoxicity against human K562 cells assessed as cell viability at 10 uM incubated for 48 hrs by sulforhodamine B assay relative to control
# NCI/ADR-RES = test: Cytotoxicity against human NCI/ADR-RES cells assessed as cell viability at 10 uM incubated for 48 hrs by sulforhodamine B assay relative to control
# HL-60(TB) = test: Cytotoxicity against human HL-60(TB) cells assessed as cell viability at 10 uM incubated for 48 hrs by sulforhodamine B assay relative to control
# CCRF-CEM = test: Cytotoxicity against human CCRF-CEM cells assessed as cell viability at 10 uM incubated for 48 hrs by sulforhodamine B assay relative to control
# OVCAR-8 = test: Cytotoxicity against human OVCAR-8 cells assessed as cell viability at 10 uM incubated for 48 hrs by sulforhodamine B assay relative to control
# RPMI-8226 = test: Cytotoxicity against human RPMI-8226 cells assessed as cell viability at 10 uM incubated for 48 hrs by sulforhodamine B assay relative to control
# MDA-MB-435 = test: Cytotoxicity against human MDA-MB-435 cells assessed as cell viability at 10 uM incubated for 48 hrs by sulforhodamine B assay relative to control
# HOP-62 = test: Cytotoxicity against human HOP-62 cells assessed as cell viability at 10 uM incubated for 48 hrs by sulforhodamine B assay relative to control
# SNB-19 = test: Cytotoxicity against human SNB-19 cells assessed as cell viability at 10 uM incubated for 48 hrs by sulforhodamine B assay relative to control
# OVCAR-3 = test: Cytotoxicity against human OVCAR-3 cells assessed as cell viability at 10 uM incubated for 48 hrs by sulforhodamine B assay relative to control
# ACHN = test: Cytotoxicity against human ACHN cells assessed as cell viability at 10 uM incubated for 48 hrs by sulforhodamine B assay relative to control
compound,measurement,setting,value
O=C(NCCNc1nccc(-c2c(-c3cccc(F)c3)nc3sccn23)n1)c1ccc(C(F)(F)F)cc1,viability at 10 µM,IGROV-1,27.8%
same,viability at 10 µM,TK-10,86.1%
same,viability at 10 µM,SR,68.9%
same,viability at 10 µM,UACC-62,26.4%
same,viability at 10 µM,MDA-MB-231,74.7%
same,viability at 10 µM,MOLT-4,50%
same,viability at 10 µM,NCI-H522,65.7%
same,viability at 10 µM,HOP-92,86.7%
same,viability at 10 µM,OVCAR-5,93.5%
same,viability at 10 µM,COLO 205,32.7%
same,viability at 10 µM,NCI-H460,73.2%
same,viability at 10 µM,SNB-75,73.7%
same,viability at 10 µM,M14,59.4%
same,viability at 10 µM,KM12,75.1%
same,viability at 10 µM,BT-549,78.9%
same,viability at 10 µM,A549,62.1%
same,viability at 10 µM,SN12C,66.6%
same,viability at 10 µM,OVCAR-4,81.8%
same,viability at 10 µM,DU-145,83.7%
same,viability at 10 µM,NCI-H23,80%
same,viability at 10 µM,MDA-MB-468,77.6%
same,viability at 10 µM,PC-3,61%
same,viability at 10 µM,SK-MEL-28,82.1%
same,viability at 10 µM,Hs-578T,85.2%
same,viability at 10 µM,SW-620,79%
same,viability at 10 µM,786-0,65.7%
same,viability at 10 µM,U-251,77%
same,viability at 10 µM,EKVX,69.1%
same,viability at 10 µM,NCI-H226,64.8%
same,viability at 10 µM,SF-268,64.9%
same,viability at 10 µM,K562,61.8%
same,viability at 10 µM,NCI/ADR-RES,73.1%
same,viability at 10 µM,HL-60(TB),103%
same,viability at 10 µM,CCRF-CEM,53.5%
same,viability at 10 µM,OVCAR-8,54.8%
same,viability at 10 µM,RPMI-8226,52.7%
same,viability at 10 µM,MDA-MB-435,47.7%
same,viability at 10 µM,HOP-62,89.9%
same,viability at 10 µM,SNB-19,86.8%
same,viability at 10 µM,OVCAR-3,76.5%
same,viability at 10 µM,ACHN,42.6%
O=S(=O)(NCCCNc1nccc(-c2c(-c3cccc(F)c3)nc3sccn23)n1)c1cccc(F)c1,viability at 10 µM,IGROV-1,18.9%
same,viability at 10 µM,TK-10,72.3%
same,viability at 10 µM,SR,64.9%
same,viability at 10 µM,UACC-62,6.36%
same,viability at 10 µM,MDA-MB-231,75.9%
same,viability at 10 µM,MOLT-4,9.94%
same,viability at 10 µM,NCI-H522,21.9%
same,viability at 10 µM,HOP-92,74.8%
same,viability at 10 µM,OVCAR-5,110%
same,viability at 10 µM,COLO 205,23.4%
same,viability at 10 µM,NCI-H460,58.3%
same,viability at 10 µM,SNB-75,88.6%
same,viability at 10 µM,M14,28.6%
same,viability at 10 µM,KM12,29.9%
same,viability at 10 µM,BT-549,33.2%
same,viability at 10 µM,A549,49.3%
same,viability at 10 µM,SN12C,56.3%
same,viability at 10 µM,OVCAR-4,26.8%
same,viability at 10 µM,DU-145,55.5%
same,viability at 10 µM,NCI-H23,38.8%
same,viability at 10 µM,MDA-MB-468,33%
same,viability at 10 µM,PC-3,27.1%
same,viability at 10 µM,SK-MEL-28,68.3%
same,viability at 10 µM,Hs-578T,63.7%
same,viability at 10 µM,SW-620,76.7%
same,viability at 10 µM,786-0,66.3%
same,viability at 10 µM,U-251,70%
same,viability at 10 µM,EKVX,52.4%
same,viability at 10 µM,NCI-H226,23.2%
same,viability at 10 µM,SF-268,55.6%
same,viability at 10 µM,K562,20.1%
same,viability at 10 µM,NCI/ADR-RES,17.6%
same,viability at 10 µM,HL-60(TB),40.5%
same,viability at 10 µM,CCRF-CEM,24.7%
same,viability at 10 µM,OVCAR-8,18.4%
same,viability at 10 µM,RPMI-8226,28%
same,viability at 10 µM,MDA-MB-435,24%
same,viability at 10 µM,HOP-62,61.3%
same,viability at 10 µM,SNB-19,76.8%
same,viability at 10 µM,OVCAR-3,50.7%
same,viability at 10 µM,ACHN,42.5%
